Data published in ChEMBL document CHEMBL3988442, “University of Dundee, Small-Polar-MMV Screening Library” (2021).

Columns and labels:
[1] = microbe, parasite or virus in culture; conditions: Mycobacterium tuberculosis, 96 h, read-out: pIC50 (converted)
[2] = microbe, parasite or virus in culture; conditions: Mycobacterium tuberculosis, 72 h, read-out: pIC50 (converted)

Row | SMILES | IC50 [1] [µM] | IC50 [2] [µM]
1 | COc1cccc(-c2noc(-c3ccc(NCCCO)nc3)n2)c1OC | 21.2 | > 50.1
2 | COc1cc(Cl)ccc1CN | 279 | > 501
3 | COc1cc(C)c(S(=O)(=O)N2C[C@@H](O)[C@@H](O)C2)cc1C | > 501 | 229
4 | Cc1cc(C(=O)NCc2cccc(F)c2)no1 | 308 | 52.9
5 | O=C(CCN1CCN(c2ccccn2)CC1)NC1CC1 | > 501 | > 501
6 | Cc1ccc(-c2noc(CN3CC(n4cc(C)cn4)C3)n2)cc1 | 22.6 | 49.1
7 | O=C(NCCCOC(F)F)NCc1ccc(Br)o1 | 125 | 135
8 | COc1cc(OC)cc(N2CCCNCC2)c1 | 150 | 112
9 | COCCNc1ccc(OC)c(OC)c1 | > 501 | 257
10 | O=C(Cc1cccnc1)NCCNc1cccc(Br)c1 | > 501 | 143
11 | CCCc1nc(N2CCCCC2)c2c(n1)c(C)nn2CC | 39.3 | 38.4
12 | COC(=O)CCCNc1ccc2c(c1)OCCO2 | 467 | 140
13 | CCS(=O)(=O)NC1CCN(c2cc(Br)ccn2)CC1 | > 501 | 146
14 | CC(Nc1ccc2c(c1)CCC2)c1nc(C2CC2)no1 (stereo not given) | 0.183 | 0.704
15 | NC(=O)C1CCN(Cc2ccc(S(=O)(=O)N3CCCC3)o2)CC1 | > 50.1 | > 50.1
16 | CCCOc1ccc(NS(=O)(=O)N(C)C)cc1Cl | > 501 | 196
17 | Oc1cccc(CNc2cccnc2-n2cccn2)c1 | 74.1 | 222
18 | CNc1cc(C(=O)NCC(OC)c2cccs2)ccn1 (stereo not given) | > 501 | 22.9
19 | NC(CN1CCOCC1)c1ccccc1 (stereo not given) | > 501 | > 501
20 | COc1ccc(OC)c(NC(=O)c2ccccn2)c1 | 156 | 173
21 | Cn1cc(Cn2nc(-c3ccco3)oc2=O)cn1 | > 501 | 187
22 | CCc1ccc(CNc2ccc(CO)cn2)cc1 | 356 | 160
23 | NCc1n[nH]c(-c2ccc(Br)cc2)n1 | > 50.1 | 24.3
24 | CCN(CCC(N)=O)Cc1cccc2c1OCO2 | 272 | 258
25 | CCC1(CO)CCCN(C(=O)c2ccc(COC)s2)C1 (stereo not given) | 246 | 148
26 | CN1CCN(C(=O)c2cc3ccccc3o2)CC1 | 203 | 207
27 | Cc1ccc(F)c(CN2CC[C@H](N)C2)c1 | 225 | 213

Row | SMILES | IC50 [1] [µM] | IC50 [2] [µM]
28 | Cc1ccc(N2N=C(C(N)=O)S(=O)(=O)c3cccnc32)cc1 | 36 | 14.5
29 | N#Cc1cc(Cl)ccc1N1CCN(C(=O)C2CCC2)CC1 | > 50.1 | > 50.1
30 | CCOc1cc(C(=O)NCCCOC(C)C)ccn1 | 137 | 87.9
31 | CC(C)Nc1ncccc1C(=O)Nc1nncs1 | > 501 | > 501
32 | CC(C)(C)Cc1nnc(NCc2ccsc2)o1 | 12.5 | > 50.1
33 | COC(=O)c1ccc(COc2ccccc2CO)o1 | 250 | 230
34 | Cc1ccn(-c2ccc(NCc3ccccc3F)nn2)n1 | 7.29 | 32.8
35 | Cc1cc(Cl)ccc1NC(=O)CN1CCN(C)CC1 | > 501 | > 501
36 | COc1ccc(CCN)cc1F | 247 | 304
37 | CCC(C)(C)NC(=O)CNc1ccc2c(c1)OCCO2 | 75.9 | 95.2
38 | CCN(Cc1ccc(Cl)c(Cl)c1)C(=O)CCS(C)(=O)=O | > 501 | 129
39 | CCn1nnc(NCc2ccccc2)n1 | > 501 | 229
40 | CCCc1nc(N(C)Cc2ccco2)c2c(n1)c(C)nn2CC | 12 | 25.2
41 | CS(=O)(=O)N1CCC(COCc2ccccc2)C1 (stereo not given) | 165 | 301
42 | Cc1csc(N2CCCN(C(=O)c3cnsn3)CC2)n1 | > 501 | 284
43 | O=C(c1ccc(Cl)o1)N1CCN(Cc2ccco2)CC1 | 69.4 | 102
44 | CC(NS(=O)(=O)N(C)C1CCCCC1)c1ccccn1 (stereo not given) | 159 | 75.6
45 | Nc1nc(-c2c(F)cccc2F)co1 | > 501 | > 501
46 | CCCc1nc(N2CC[C@@H](c3ccc4c(c3)OCO4)[C@H](O)C2)no1 | > 50.1 | 44.3
47 | N#Cc1ccc(NCCC2CCN(CC(F)(F)F)CC2)nc1 | 14 | 15.8
48 | O=C(c1cnsn1)N1CCN(c2ccccn2)CC1 | 51.4 | 84.6
49 | O=C(c1ccccn1)N1CCC2(CCCC2)CC1 | 160 | 245
50 | O=C1CC2(CCN(Cc3cccs3)C2)CN1c1cccc(F)c1 (stereo not given) | 18.6 | 1.43
51 | CCOC1CCN(CCc2nc(-c3cccc(Cl)c3)no2)CC1 | 28.2 | 32.4
52 | CCc1cc(CN(C)C(=O)c2cnon2)on1 | > 50.1 | > 50.1
53 | CCSc1nc2ccccc2c(=O)n1CCCO | 278 | 181
54 | CC1COC2(CCN(C(=O)c3ccc(Cl)s3)CC2)O1 (stereo not given) | 45.1 | 25.7

Row | SMILES | IC50 [1] [µM] | IC50 [2] [µM]
55 | COc1cccc2c1CCCCN2C(=O)c1oc(C)nc1C | > 50.1 | > 50.1
56 | CC(C)Nc1cc(Cl)ccc1OCCS(C)(=O)=O | 222 | 191
57 | NC1CCN(c2ncccc2F)C1 (stereo not given) | > 501 | 462
58 | CC1(C)CN(C(=O)c2cc(Br)c[nH]2)CCO1 | 290 | 136
59 | CN(C)C(CN)c1ccc(F)cc1 (stereo not given) | > 501 | 244
60 | Cc1[nH]c2ccc(C(N)=O)cc2c1C | 41.9 | 20.8
61 | NCCCOC1CCN(C(=O)c2ccc(Br)o2)CC1 | > 501 | 76.7
62 | CC(C)Oc1ccc(CSc2nnc(CN3CCCC3=O)o2)cc1 | 14.5 | 43.5
63 | Cn1ccnc1N1CCN(c2ccc(C#N)cn2)CC1 | > 501 | > 501
64 | O=C(O)c1cc(-c2ccoc2)cc(S(=O)(=O)NC2CC2)c1 | > 50.1 | > 50.1
65 | OCCNCCNCc1cccc(Cl)c1Cl | 33.1 | 199
66 | C=C(C)c1nc(C#N)c(NCc2ccco2)o1 | 170 | 142
67 | CC(C)N(C)S(=O)(=O)NC1CCOc2ccccc21 (stereo not given) | > 501 | 340
68 | Cc1c(C(=O)NC2=NCCS2)oc2ccccc12 | 247 | 279
69 | Cc1cncc(NS(=O)(=O)CCc2ccccc2)c1 | > 501 | 314
70 | CC(C)(C)OC(=O)NC1CC2(CNC2)C1 | > 501 | 244
71 | Cn1cncc1CN1CCCC1c1cncc(Oc2ccc(F)cc2)n1 (stereo not given) | > 50.1 | 19.4
72 | Cc1ccc(OC2CN(C(=O)[C@H](N)C(C)C)C2)cc1 | 236 | 393
73 | CCOc1cc(Cl)ccc1CN | 121 | 159
74 | Cn1nnnc1SCCOc1cccc(F)c1 | 87.9 | 412
75 | CCc1nc(CN(C)C2CCN(CCC(=O)N3CCCCC3)C2)no1 (stereo not given) | > 50.1 | > 50.1
76 | O=C(Nc1cc[nH]n1)c1csc(I)c1 | > 501 | 193
77 | COC(=O)C(O)CNc1ccc(C(F)(F)F)cn1 (stereo not given) | > 501 | > 501
78 | COc1ccnc(N2CCCNCC2)n1 | > 501 | 229
79 | CC(C)(C)c1noc(CCC(=O)N2CCSCC2)n1 | > 501 | > 501
80 | Cc1ccc(S(=O)(=O)NC(CN)C2CC2)c(F)c1 (stereo not given) | > 501 | > 501
81 | N#Cc1cccnc1NC1CCN(c2ccccc2OC(F)F)C1=O (stereo not given) | 1.27 | > 50.1

Row | SMILES | IC50 [1] [µM] | IC50 [2] [µM]
82 | N#CCCN1CCCN(c2ccc(C#N)cc2)CC1 | 262 | 232
83 | CN1CN(Cc2ccc(Cl)o2)CC1=O | > 501 | > 501
84 | Cc1csc(N2CCN(C(=O)c3ccc(C)s3)CC2)n1 | 15.5 | > 50.1
85 | CS(=O)(=O)N1CCC(NCCSc2cnn[nH]2)CC1 | > 501 | > 501
86 | O=C1Nc2ccccc2NC12CCN(c1cccc(C(F)(F)F)n1)CC2 | > 50.1 | > 50.1
87 | COc1ccc(NC(=O)c2ccc(S(N)(=O)=O)o2)cc1 | > 501 | > 501
88 | N[C@@H]1CCN(Cc2cc(F)cc(C(F)(F)F)c2)C[C@H]1O | > 501 | 266
89 | CC(Cn1cccn1)NCc1csc(-c2ccc3c(c2)OCO3)n1 (stereo not given) | > 50.1 | 1.35
90 | CCCNC(=O)c1cc(Br)c[nH]1 | > 501 | > 501
91 | O=C(CSc1cnn[nH]1)N1CCc2ccccc2C1 | > 501 | > 501
92 | CNC(=O)[C@@H](C)NC(=O)c1ccc(-c2ccc(C)o2)s1 | 278 | 297
93 | CC(C)C(NCC(N)=O)c1ccc(F)cc1 (stereo not given) | > 501 | > 501
94 | Cc1nc(Cn2cc(S(=O)(=O)N(C)C)ccc2=O)cs1 | > 501 | 326
95 | Fc1ccc(C(NCc2nnc(-c3ccco3)o2)C2CCC2)cc1 (stereo not given) | 4.62 | 0.884
96 | CCc1c(C(=O)NCC(=O)OCC2CC2)cnn1-c1ccc(C)cc1 | 18.9 | 45.9
97 | Cc1nc(CSCCC(=O)Nc2cccc(N3CCNC3=O)c2)cs1 | > 50.1 | > 50.1
98 | CC(C)(C)OCCOc1ccc(OCCO)cc1 | 161 | 101
99 | O=C(NC1CCCc2ccccc21)c1ccncc1 (stereo not given) | > 501 | 146
100 | COC(=O)c1ccc(CCNC(=O)C2CCCO2)cc1 (stereo not given) | 383 | 281
101 | O=C(CSCCO)Nc1ncc(-c2ccccc2)s1 | 272 | 174
102 | CC(C)OCc1cccc(CNc2cnn(C)c(=O)c2Cl)c1 | 5.63 | 19.1
103 | COc1ccnc(CN2CCCC2CSC)c1OC (stereo not given) | > 501 | 180
104 | NC1CCN(c2ccc(C(F)(F)F)cn2)CC1 | 139 | 91.6
105 | COc1c(F)cc(CN2CC[C@@H](N)[C@H](O)C2)cc1Cl | > 501 | 279
